According to ChEMBL document CHEMBL1201862, “PubChem BioAssay data set” (2004):
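Protocol summary: plate cells (96-well), add compound at 5 concentrations, incubate 48 h, interpolate endpoints linearly. Here, GI50 denotes the concentration required for 50% inhibition of growth.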 Activity calls are given as the source filed them. Cut-off read from the data, not from the text of the source: active = GI50 up to about 1.1 µM and inactive = higher.

How the values were obtained:
Assay in all cases: NCI anticancer screen, dose series, 48 h
[1] = tested on: 786-0
[2] = tested on: BT-549
[3] = tested on: CCRF-CEM
[4] = tested on: DU-145
[5] = tested on: HCC 2998
[6] = tested on: HCT-15
[7] = tested on: IGROV-1
[8] = tested on: MCF7
[9] = tested on: MDA-MB-231
[10] = tested on: Malme-3M
[11] = tested on: OVCAR-3
[12] = tested on: SF-268
[13] = tested on: SF-295
[14] = tested on: SK-MEL-28
[15] = tested on: SK-MEL-5
[16] = tested on: SN12C
[17] = tested on: SNB-19
[18] = tested on: T47D
[19] = tested on: UACC-257

## COc1cc(OC)c(OC)cc1/C=C/c1cnnc2ccccc12
[1]
  GI50: > 10 µM (inactive)
[2]
  GI50: > 10 µM (inactive)
[3]
  GI50: > 10 µM (inactive)
[4]
  GI50: > 10 µM (inactive)
[5]
  GI50: > 10 µM (inactive)
[6]
  GI50: > 10 µM
[7]
  GI50: > 10 µM (inactive)
[8]
  GI50: 1.68 µM (inactive)
[9]
  GI50: > 10 µM (inactive)
[10]
  GI50: > 10 µM (inactive)
[11]
  GI50: > 10 µM (inactive)
[12]
  GI50: > 10 µM (inactive)
[13]
  GI50: > 10 µM (inactive)
[14]
  GI50: > 10 µM (inactive)
[15]
  GI50: > 10 µM (inactive)
[16]
  GI50: > 10 µM (inactive)
[17]
  GI50: > 10 µM (inactive)
[18]
  GI50: > 10 µM (inactive)
[19]
  GI50: > 10 µM (inactive)

## Cc1oc2c(c1C)S(=O)(=O)C(C#N)C(c1ccccc1)N2 (centres undefined)
[1]
  GI50: 40.9 µM (inactive)
[2]
  GI50: 45.4 µM (inactive)
[3]
  GI50: 20.4 µM (inactive)
[4]
  GI50: 80.7 µM (inactive)
[5]
  GI50: 53.8 µM (inactive)
[6]
  GI50: 38.7 µM
[7]
  GI50: > 100 µM (inactive)
[8]
  GI50: 51.5 µM (inactive)
[9]
  GI50: > 100 µM (inactive)
[10]
  GI50: 37.7 µM (inactive)
[11]
  GI50: 65.6 µM (inactive)
[12]
  GI50: 56 µM (inactive)
[13]
  GI50: 78.9 µM (inactive)
[14]
  GI50: > 100 µM (inactive)
[15]
  GI50: 32.4 µM (inactive)
[16]
  GI50: 49.8 µM (inactive)
[17]
  GI50: > 100 µM (inactive)
[18]
  GI50: 62.5 µM (inactive)
[19]
  GI50: 56.6 µM (inactive)

## O=C1c2ccccc2C(=O)[C@@]23O[C@@]12C1(Oc2cccc4cccc(c24)O1)[C@@H]1O[C@@H]1[C@@H]3O
[1]
  GI50: 4.23 µM (inactive)
[2]
  GI50: 2.9 µM (inactive)
[3]
  GI50: 1.76 µM (inactive)
[4]
  GI50: 14.6 µM (inactive)
[5]
  GI50: 6.17 µM (inactive)
[6]
  GI50: 5.01 µM
[7]
  GI50: 13.6 µM (inactive)
[8]
  GI50: 3.66 µM (inactive)
[9]
  GI50: 14.8 µM (inactive)
[10]
  GI50: 13.4 µM (inactive)
[11]
  GI50: 4.65 µM (inactive)
[12]
  GI50: 9.68 µM (inactive)
[13]
  GI50: 12.9 µM (inactive)
[14]
  GI50: 20.6 µM (inactive)
[15]
  GI50: 24.4 µM (inactive)
[16]
  GI50: 11.6 µM (inactive)
[17]
  GI50: 13.3 µM (inactive)
[18]
  GI50: 9.16 µM (inactive)
[19]
  GI50: 15.8 µM (inactive)

## NCCSCCC(=O)O
[1]
  GI50: > 38.1 µM (inactive)
[2]
  GI50: > 100 µM (inactive)
[3]
  GI50: 23 µM (inactive)
[4]
  GI50: > 52 µM (inactive)
[5]
  GI50: 28.6 µM (inactive)
[6]
  GI50: > 59 µM
[7]
  GI50: > 100 µM (inactive)
[8]
  GI50: > 57.1 µM (inactive)
[9]
  GI50: > 100 µM (inactive)
[10]
  GI50: > 100 µM (inactive)
[11]
  GI50: > 100 µM (inactive)
[12]
  GI50: > 77.3 µM (inactive)
[13]
  GI50: > 48.4 µM (inactive)
[14]
  GI50: 37.9 µM (inactive)
[15]
  GI50: 39.9 µM (inactive)
[16]
  GI50: > 43.1 µM (inactive)
[17]
  GI50: > 94.8 µM (inactive)
[18]
  GI50: > 33.5 µM (inactive)
[19]
  GI50: > 59 µM (inactive)

## CC(=O)Nc1c(C)cc2c(nc3n2CCC3O)c1[N+](=O)[O-] (centres undefined)
[1]
  GI50: > 100 µM (inactive)
[2]
  GI50: > 100 µM (inactive)
[3]
  GI50: > 100 µM (inactive)
[4]
  GI50: > 100 µM (inactive)
[5]
  GI50: > 100 µM (inactive)
[6]
  GI50: > 100 µM
[7]
  GI50: > 100 µM (inactive)
[8]
  GI50: > 100 µM (inactive)
[9]
  GI50: > 100 µM (inactive)
[10]
  GI50: > 100 µM (inactive)
[11]
  GI50: > 100 µM (inactive)
[12]
  GI50: > 100 µM (inactive)
[13]
  GI50: > 100 µM (inactive)
[14]
  GI50: > 100 µM (inactive)
[15]
  GI50: > 100 µM (inactive)
[16]
  GI50: > 100 µM (inactive)
[17]
  GI50: > 100 µM (inactive)
[18]
  GI50: > 100 µM (inactive)
[19]
  GI50: > 100 µM (inactive)

## O=c1[nH]nc(-c2ccccc2)n1/N=C/c1cccc([N+](=O)[O-])c1
[1]
  GI50: > 100 µM (inactive)
[2]
  GI50: > 100 µM (inactive)
[3]
  GI50: > 100 µM (inactive)
[4]
  GI50: > 100 µM (inactive)
[5]
  GI50: > 100 µM (inactive)
[6]
  GI50: > 100 µM
[7]
  GI50: > 100 µM (inactive)
[8]
  GI50: > 100 µM (inactive)
[9]
  GI50: > 100 µM (inactive)
[10]
  GI50: > 100 µM (inactive)
[11]
  GI50: > 100 µM (inactive)
[12]
  GI50: > 100 µM (inactive)
[13]
  GI50: 59.7 µM (inactive)
[14]
  GI50: > 100 µM (inactive)
[15]
  GI50: > 100 µM (inactive)
[16]
  GI50: > 100 µM (inactive)
[17]
  GI50: 98.6 µM (inactive)
[18]
  GI50: > 100 µM (inactive)
[19]
  GI50: > 100 µM (inactive)

## CCC(=O)N1NC(=O)C(CC)(CC)C1=O
[1]
  GI50: > 100 µM (inactive)
[2]
  GI50: > 100 µM (inactive)
[3]
  GI50: > 100 µM (inactive)
[4]
  GI50: > 100 µM (inactive)
[5]
  GI50: > 100 µM (inactive)
[6]
  GI50: > 100 µM
[7]
  GI50: > 100 µM (inactive)
[8]
  GI50: > 100 µM (inactive)
[9]
  GI50: > 100 µM (inactive)
[10]
  GI50: 0.276 µM (active)
[11]
  GI50: > 100 µM (inactive)
[12]
  GI50: > 100 µM (inactive)
[13]
  GI50: > 100 µM (inactive)
[14]
  GI50: > 100 µM (inactive)
[15]
  GI50: > 100 µM (inactive)
[16]
  GI50: > 100 µM (inactive)
[17]
  GI50: > 100 µM (inactive)
[18]
  GI50: > 100 µM (inactive)
[19]
  GI50: > 100 µM (inactive)

## COc1cc([C@H]2CC(=O)C[C@@H](c3cc(OC)c(OC)c(OC)c3)C23C(=O)c2ccccc2C3=O)cc(OC)c1OC
[1]
  GI50: > 100 µM (inactive)
[2]
  GI50: > 100 µM (inactive)
[3]
  GI50: > 100 µM (inactive)
[4]
  GI50: > 100 µM (inactive)
[5]
  GI50: > 100 µM (inactive)
[6]
  GI50: > 100 µM
[7]
  GI50: > 100 µM (inactive)
[8]
  GI50: > 100 µM (inactive)
[9]
  GI50: > 100 µM (inactive)
[10]
  GI50: > 100 µM (inactive)
[11]
  GI50: > 100 µM (inactive)
[12]
  GI50: > 100 µM (inactive)
[13]
  GI50: > 100 µM (inactive)
[14]
  GI50: > 100 µM (inactive)
[15]
  GI50: > 100 µM (inactive)
[16]
  GI50: > 100 µM (inactive)
[17]
  GI50: > 100 µM (inactive)
[18]
  GI50: > 100 µM (inactive)
[19]
  GI50: > 100 µM (inactive)

## O=C1/C(=C/c2ccc(O)c([N+](=O)[O-])c2)CCC/C1=C\c1ccc(O)c([N+](=O)[O-])c1
[1]
  GI50: 11.5 µM (inactive)
[2]
  GI50: 13.3 µM (inactive)
[3]
  GI50: 30 µM (inactive)
[4]
  GI50: 9.77 µM (inactive)
[5]
  GI50: 8.69 µM (inactive)
[6]
  GI50: 12.4 µM
[7]
  GI50: 8.93 µM (inactive)
[8]
  GI50: 12.3 µM (inactive)
[9]
  GI50: 21.9 µM (inactive)
[10]
  GI50: 8.63 µM (inactive)
[11]
  GI50: 8.36 µM (inactive)
[12]
  GI50: 4.28 µM (inactive)
[13]
  GI50: 18.4 µM (inactive)
[14]
  GI50: 7.5 µM (inactive)
[15]
  GI50: 9.27 µM (inactive)
[16]
  GI50: 11.4 µM (inactive)
[17]
  GI50: 11.7 µM (inactive)
[18]
  GI50: 14.9 µM (inactive)
[19]
  GI50: 10.5 µM (inactive)

## Cc1cccc2cc3ccc4ccccc4c3cc12
[1]
  GI50: 41.7 µM (inactive)
[2]
  GI50: > 100 µM (inactive)
[3]
  GI50: 20.1 µM (inactive)
[4]
  GI50: 66.5 µM (inactive)
[5]
  GI50: 19.9 µM (inactive)
[6]
  GI50: 47 µM
[7]
  GI50: 55 µM (inactive)
[8]
  GI50: 8.28 µM (inactive)
[9]
  GI50: 51.3 µM (inactive)
[10]
  GI50: 56.5 µM (inactive)
[11]
  GI50: 63.2 µM (inactive)
[12]
  GI50: > 100 µM (inactive)
[13]
  GI50: 40.8 µM (inactive)
[14]
  GI50: > 100 µM (inactive)
[15]
  GI50: 21.9 µM (inactive)
[16]
  GI50: 51.6 µM (inactive)
[17]
  GI50: 76.2 µM (inactive)
[18]
  GI50: 22.1 µM (inactive)
[19]
  GI50: 20 µM (inactive)

## CC(C)NC(=O)OCc1c(COC(=O)NC(C)C)c(-c2cc[n+](COC(=O)C3CCCCC3)cc2)n2c1CCC2
[1]
  GI50: > 100 µM (inactive)
[2]
  GI50: > 100 µM (inactive)
[3]
  GI50: 44.8 µM (inactive)
[4]
  GI50: > 100 µM (inactive)
[5]
  GI50: > 100 µM (inactive)
[6]
  GI50: > 100 µM
[7]
  GI50: > 100 µM (inactive)
[8]
  GI50: 83.4 µM (inactive)
[9]
  GI50: > 100 µM (inactive)
[10]
  GI50: > 100 µM (inactive)
[11]
  GI50: > 100 µM (inactive)
[12]
  GI50: 91.2 µM (inactive)
[13]
  GI50: > 100 µM (inactive)
[14]
  GI50: > 100 µM (inactive)
[15]
  GI50: > 100 µM (inactive)
[16]
  GI50: > 100 µM (inactive)
[17]
  GI50: > 100 µM (inactive)
[18]
  GI50: > 100 µM (inactive)
[19]
  GI50: > 100 µM (inactive)
